Test results published in ChEMBL document CHEMBL3085678, “3-Azatetracyclo[5.2.1.1(5,8).0(1,5)]undecane derivatives: from wild-type inhibitors of the M2 ion channel of influenza A virus to derivatives with potent activity against the V27A mutant” (J Med Chem, 2013).
The source made the active and inactive calls. No cut-off for these calls is given here.

Experiments:
[1] = Cytotoxicity against MDCK cells assessed as minimum cytotoxic concentration after 72 hrs by MTS assay; format: cell-based, Canis lupus familiaris; settings: dog
MDCK = test: Cytotoxicity against MDCK cells after 72 hrs by MTS assay; format: cell-based, Canis lupus familiaris; settings: dog
Coxsackievirus B4 = test: Antiviral activity against Coxsackievirus B4; format: functional, organism-based
[2] = system: Mammalian orthoreovirus 1; test: Antiviral activity against Reovirus-1; format: functional, organism-based
Punta Toro virus = test: Antiviral activity against Punta Toro virus; format: functional, organism-based
[3] = system: Vesicular stomatitis virus; test: Antiviral activity against Vesicular stomatitis virus; format: functional, organism-based
Sindbis virus = test: Antiviral activity against Sindbis virus; format: functional, organism-based
[4] = system: Respiratory syncytial virus; test: Antiviral activity against Respiratory syncytial virus; format: functional, organism-based
Human respirovirus 3 = test: Antiviral activity against Parainfluenza-3 virus; format: functional, organism-based
Vaccinia virus = test: Antiviral activity against Vaccinia virus; format: functional, organism-based; settings: Orthopoxvirus vaccinia
Feline coronavirus = test: Antiviral activity against Feline coronavirus; format: functional, organism-based
Human alphaherpesvirus 2 = test: Antiviral activity against Herpes simplex virus type 2; format: functional, organism-based
Human alphaherpesvirus 1 = test: Antiviral activity against Herpes simplex virus type 1; format: functional, organism-based
[5] = system: Influenza A virus (A/udorn/1972(H3N2)); format: cell membranes; settings: 100 uM
[6] = Cytotoxicity against MDCK cells assessed as minimum cytotoxic concentration after 24 hrs by MTS assay; format: cell-based, Canis lupus familiaris; settings: dog
[7] = Inhibition of Influenza A virus M2 ion channel by two-electrode voltage clamp assay

Row | Structure (SMILES) | MCC at 72 h [1] [µM] | CC50 (MDCK) [µM] | Activity (Coxsackievirus B4) | Activity [2] | Activity (Punta Toro virus) | Activity [3] | Activity (Sindbis virus) | Activity [4] | Activity (Human respirovirus 3) | Activity (Vaccinia virus) | Activity (Feline coronavirus) | Activity (Human alphaherpesvirus 2) | Activity (Human alphaherpesvirus 1) | inhibition [5] [%] | MCC at 24 h [6] [µM] | IC50 [7] [µM]
1 | CN1CC23CC4CC2(CC4C3)C1 | ≥ 100 | > 100 | inactive | inactive | inactive | inactive | inactive | inactive | inactive | inactive | inactive | inactive | inactive | 88.3 | – | –
2 | CCC12CC34CNCC3(C1)CC2(CC)C4 | 20 | 49 | inactive | inactive | inactive | inactive | inactive | inactive | inactive | inactive | inactive | inactive | inactive | 65 | – | –
3 | CCC12CC34CN(C(=N)N)CC3(C1)CC2(CC)C4 | 4 | 6.2 | inactive | inactive | inactive | inactive | inactive | inactive | inactive | inactive | inactive | inactive | inactive | 42.8 | – | –
4 | C1C2C1C1C3C4C5C6CC6C4C14CNCC54C23 (configuration not stated) | – | – | inactive | inactive | inactive | inactive | inactive | inactive | inactive | inactive | inactive | inactive | inactive | 86.5 | – | –
5 | C1NCC23CC4CC12CC4C3 | 100 | ≥ 59 | inactive | inactive | inactive | inactive | inactive | inactive | inactive | inactive | inactive | inactive | inactive | 93.9 | – | –
6 | NCC12C3CCC4C3C3C(CCC31)C42 | – | – | inactive | inactive | inactive | inactive | inactive | inactive | inactive | inactive | inactive | inactive | inactive | 12.8 | – | –
7 | CC12CC34CNCC3(C1)CC2(C)C4 | 100 | 59 | inactive | inactive | inactive | inactive | inactive | inactive | inactive | inactive | inactive | inactive | inactive | 93.8 | – | –
8 | N=C(N)N1CC23CC4CC2(CC4C3)C1 | 8.5 | 10 | inactive | inactive | inactive | inactive | inactive | inactive | inactive | inactive | inactive | inactive | inactive | 95.7 | > 50 | –
9 | Oc1ccc(CNC23CC4CC(CC(C4)C2)C3)c(O)c1 | – | – | – | – | – | – | – | – | – | – | – | – | – | – | – | 59
10 | NC12C3CCC4C3C3C(CCC31)C42 | – | – | inactive | inactive | inactive | inactive | inactive | inactive | inactive | inactive | inactive | inactive | inactive | 4.8 | – | –
11 | CC12CC34CN(C(=N)N)CC3(C1)CC2(C)C4 | 4 | 1.4 | inactive | inactive | inactive | inactive | inactive | inactive | inactive | inactive | inactive | inactive | inactive | 92.4 | > 50 | –
12 | NC12CC3CC(CC(C3)C1)C2 [AMANTADINE] | > 500 | > 500 | – | – | – | – | – | – | – | – | – | – | – | 91 | ≥ 500 | –
13 | C1CCC23CC45CNCC4(CC2(C1)C5)C3 | 4 | 6.8 | inactive | inactive | inactive | inactive | inactive | inactive | inactive | inactive | inactive | inactive | inactive | 85.3 | > 50 | –
14 | N=C(N)N1CC23CC45CCCCC4(C2)CC3(C1)C5 | 4 | 3.1 | inactive | inactive | inactive | inactive | inactive | inactive | inactive | inactive | inactive | inactive | inactive | 93.1 | ≥ 10 | –
15 | NC1CCC2(CC1)C1CC3CC(C1)CC2C3 (configuration not stated) | – | – | – | – | – | – | – | – | – | – | – | – | – | – | – | 19
16 | C1=CC2C3C4C5C=CC4C24CNCC54C13 | – | – | inactive | inactive | inactive | inactive | inactive | inactive | inactive | inactive | inactive | inactive | inactive | – | – | –
17 | CC12CC3CC1(C)CC3(CN)C2 | – | – | inactive | inactive | inactive | inactive | inactive | inactive | inactive | inactive | inactive | inactive | inactive | 97.3 | – | –
18 | NC(=O)c1ncn([C@@H]2O[C@H](CO)[C@@H](O)[C@H]2O)n1 [RIBAVIRIN] | – | – | – | – | – | – | – | – | – | – | – | – | – | – | > 100 | –
19 | CN1CC23CC4(C)CC2(C1)CC4(C)C3 | ≥ 20 | 49 | inactive | inactive | inactive | inactive | inactive | inactive | inactive | inactive | inactive | inactive | inactive | 87.9 | – | –
20 | CC(N)C12CC3CC(CC(C3)C1)C2 (configuration not stated) [RIMANTADINE] | 500 | 203 | – | – | – | – | – | – | – | – | – | – | – | – | ≥ 500 | –
21 | NC1CC[Si]2(CCCCC2)CC1 | – | – | – | – | – | – | – | – | – | – | – | – | – | – | – | 14
22 | c1csc(-c2cc(CNC34CC5CC(CC(C5)C3)C4)no2)c1 | – | – | – | – | – | – | – | – | – | – | – | – | – | – | – | > 100
23 | CC12CC3CC1(C)CC3(N)C2 | – | – | inactive | inactive | inactive | inactive | inactive | inactive | inactive | inactive | inactive | inactive | inactive | 93.6 | – | –
